Measurements reported in ChEMBL document CHEMBL5316298, “Discovery of Amphiphilic Xanthohumol Derivatives as Membrane-Targeting Antimicrobials against Methicillin-Resistant Staphylococcus aureus” (J Med Chem, 2023).
Converted amounts (≈) assume the structure as drawn.

Key:
Staphylococcus aureus [1] = assay: Antibacterial activity against Staphylococcus aureus ATCC 29213 incubated for 16 to 18 hrs by CLSI-based microbroth dilution method; assay type: functional; details: time 16-18 hrs
Staphylococcus aureus [2] = assay: Antibacterial activity against methicillin-resistant Staphylococcus aureus clinical isolate 5 incubated for 16 to 18 hrs by CLSI-based microbroth dilution method; assay type: functional; details: time 16-18 hrs
Staphylococcus aureus [3] = assay: Antibacterial activity against methicillin-resistant Staphylococcus aureus clinical isolate 8 incubated for 16 to 18 hrs by CLSI-based microbroth dilution method; assay type: functional; details: time 16-18 hrs
Staphylococcus aureus [4] = assay: Antibacterial activity against methicillin-resistant Staphylococcus aureus clinical isolate 9 incubated for 16 to 18 hrs by CLSI-based microbroth dilution method; assay type: functional; details: time 16-18 hrs
Staphylococcus aureus [5] = assay: Antibacterial activity against methicillin-resistant Staphylococcus aureus clinical isolate 6 incubated for 16 to 18 hrs by CLSI-based microbroth dilution method; assay type: functional; details: time 16-18 hrs
Staphylococcus aureus [6] = assay: Antibacterial activity against methicillin-resistant Staphylococcus aureus clinical isolate 3 incubated for 16 to 18 hrs by CLSI-based microbroth dilution method; assay type: functional; details: time 16-18 hrs
Staphylococcus aureus [7] = assay: Antibacterial activity against methicillin-resistant Staphylococcus aureus clinical isolate 4 incubated for 16 to 18 hrs by CLSI-based microbroth dilution method; assay type: functional; details: time 16-18 hrs
Staphylococcus aureus [8] = assay: Antibacterial activity against methicillin-resistant Staphylococcus aureus clinical isolate 1 incubated for 16 to 18 hrs by CLSI-based microbroth dilution method; assay type: functional; details: time 16-18 hrs
Staphylococcus aureus [9] = assay: Antibacterial activity against methicillin-resistant Staphylococcus aureus clinical isolate 10 incubated for 16 to 18 hrs by CLSI-based microbroth dilution method; assay type: functional; details: time 16-18 hrs
Staphylococcus aureus [10] = assay: Antibacterial activity against methicillin-resistant Staphylococcus aureus clinical isolate 2 incubated for 16 to 18 hrs by CLSI-based microbroth dilution method; assay type: functional; details: time 16-18 hrs
Staphylococcus aureus [11] = assay: Antibacterial activity against methicillin-resistant Staphylococcus aureus clinical isolate 7 incubated for 16 to 18 hrs by CLSI-based microbroth dilution method; assay type: functional; details: time 16-18 hrs
[12] = Hemolytic activity in sheep erythrocytes incubated for 1 hr by absorbance based analysis; assay type: toxicity, cell-based, Ovis aries, Erythrocyte

Row | SMILES | MIC (Staphylococcus aureus [1]) | MIC (Staphylococcus aureus [2]) | MIC (Staphylococcus aureus [3]) | MIC (Staphylococcus aureus [4]) | MIC (Staphylococcus aureus [5]) | MIC (Staphylococcus aureus [6]) | MIC (Staphylococcus aureus [7]) | MIC (Staphylococcus aureus [8]) | MIC (Staphylococcus aureus [9]) | MIC (Staphylococcus aureus [10]) | MIC (Staphylococcus aureus [11]) | HC50 at 1 h [12]
1 | CCCCCCNC(=O)C[N+](C)(C)CCCCCOc1ccc(/C=C/C(=O)c2c(OC)cc3c(c2O)C=CC(C)(C)O3)cc1.[Br-] | 4 µg/mL | 2 µg/mL | 4 µg/mL | 4 µg/mL | 2 µg/mL | 2 µg/mL | 2 µg/mL | 2 µg/mL | 2 µg/mL | 2 µg/mL | 4 µg/mL | 245 µg/mL
2 | CCCCNC(=O)C[N+](C)(C)CCCCOc1ccc(/C=C/C(=O)c2c(OC)cc3c(c2O)C=CC(C)(C)O3)cc1.[Br-] | 4 µg/mL | 2 µg/mL | 4 µg/mL | 2 µg/mL | 2 µg/mL | 2 µg/mL | 2 µg/mL | 2 µg/mL | 4 µg/mL | 2 µg/mL | 2 µg/mL | 220 µg/mL
3 | COc1cc2c(c(O)c1C(=O)/C=C/c1ccc(O)cc1)C=CC(C)(C)O2 [XANTHOHUMOL C] | 4 µg/mL (≈ 11.4 µM) | 4 µg/mL (≈ 11.4 µM) | 4 µg/mL (≈ 11.4 µM) | 8 µg/mL (≈ 22.7 µM) | 8 µg/mL (≈ 22.7 µM) | 4 µg/mL (≈ 11.4 µM) | 4 µg/mL (≈ 11.4 µM) | 4 µg/mL (≈ 11.4 µM) | 4 µg/mL (≈ 11.4 µM) | 4 µg/mL (≈ 11.4 µM) | 4 µg/mL (≈ 11.4 µM) | 222 µg/mL
4 | CCCNC(=O)C[N+](C)(C)CCCCOc1ccc(/C=C/C(=O)c2c(OC)cc3c(c2O)C=CC(C)(C)O3)cc1.[Br-] | 4 µg/mL | 4 µg/mL | 2 µg/mL | 2 µg/mL | 2 µg/mL | 2 µg/mL | 4 µg/mL | 2 µg/mL | 4 µg/mL | 2 µg/mL | 2 µg/mL | 410 µg/mL
5 | CCCCCNC(=O)C[N+](C)(C)CCCCCOc1ccc(/C=C/C(=O)c2c(OC)cc3c(c2O)C=CC(C)(C)O3)cc1.[Br-] | 2 µg/mL | 2 µg/mL | 2 µg/mL | 8 µg/mL | 2 µg/mL | 2 µg/mL | 2 µg/mL | 2 µg/mL | 4 µg/mL | 2 µg/mL | 4 µg/mL | 301 µg/mL
6 | CCCCCNC(=O)C[N+](C)(C)CCCCOc1ccc(/C=C/C(=O)c2c(OC)cc3c(c2O)C=CC(C)(C)O3)cc1.[Br-] | 4 µg/mL | 4 µg/mL | 4 µg/mL | 4 µg/mL | 2 µg/mL | 4 µg/mL | 8 µg/mL | 4 µg/mL | 4 µg/mL | 4 µg/mL | 4 µg/mL | 83.4 µg/mL
7 | COc1cc2c(c(O)c1C(=O)/C=C/c1ccc(OCCC[N+](C)(C)CC(=O)N(C(C)C)C(C)C)cc1)C=CC(C)(C)O2.[Br-] | 4 µg/mL | 1 µg/mL | 2 µg/mL | 2 µg/mL | 1 µg/mL | 1 µg/mL | 2 µg/mL | 2 µg/mL | 4 µg/mL | 2 µg/mL | 2 µg/mL | 158 µg/mL
8 | CCCCNC(=O)C[N+](C)(C)CCCOc1ccc(/C=C/C(=O)c2c(OC)cc3c(c2O)C=CC(C)(C)O3)cc1.[Br-] | 2 µg/mL | 2 µg/mL | 2 µg/mL | 1 µg/mL | 2 µg/mL | 1 µg/mL | 2 µg/mL | 2 µg/mL | 4 µg/mL | 2 µg/mL | 2 µg/mL | 58.3 µg/mL
9 | COc1cc2c(c(O)c1C(=O)/C=C/c1ccc(OCCC[N+](C)(C)CC(=O)N3CCSCC3)cc1)C=CC(C)(C)O2.[Br-] | 2 µg/mL | 2 µg/mL | 2 µg/mL | 2 µg/mL | 2 µg/mL | 2 µg/mL | 4 µg/mL | 4 µg/mL | 4 µg/mL | 2 µg/mL | 2 µg/mL | 416 µg/mL
